# Laboratory results as given in patent US10124035B2, “DISC-1 pathway activators in the control of neurogenesis” (Massachusetts Institute of Technology, priority 2008, dated 2018).
# Entries after “also recorded” stand apart in the source; their conditions may differ.
# Legend:
# [1] = system: DISC1 knockdown AHP cells; assay: BrdU incorporation in DISC1 knockdown progenitor cells; assay type: cell-based; settings: SB-216763 5 μM for 16 hours, 10 μM BrdU for 2 hours
# Description: Primary neural stem cells from E14 brains were infected with control or DISC1 shRNA lentiviruses. 48 hours after to transduction, cells were treated with vehicle or SB-216763 (5 μM) for 16 hours and then pulsed with 10 μM BrdU for 2 hours. Shown is percentage of GFP and BrdU double positive cells to total GFP positive cells (n=3, p<0.05). b. […] 1.5 μg of vector or WT-DISC1 was cotransfected with 0.5 μg control or DISC1 shRNA-2, 0.1 μg TCF reporter, and 10 ng pRL-TK vector into 293T cells. 48 hours after transfection, Wnt3a conditional medium with vehicle, SB-216763, or AR-A104418 was added for another 16 hours.
# If DISC1 functions to inhibit GSK3β activity, the negative effects of DISC1 silencing on proliferation should be alleviated by GSK3β loss-of-function. We examined the consequence of treating DISC1 knockdown AHP cells with SB-216763, a specific chemical inhibitor of GSK3β. […] These experiments further support a role of DISC1 in controlling cell proliferation via modulation of GSK3β.
# [2] = system: AHPs; assay: Immunoblot of β-catenin and cyclin D1 in transduced AHPs; assay type: cell-based
# Text: • Mice. Swiss Webster pregnant female mice were purchased from Taconic (Hudson, N.Y.). • Cell Culture. AHPs were kindly provided by Dr. Gage (Lie, D. C. et al. Wnt signaling to regulates adult hippocampal neurogenesis. Nature 437, 1370-5 (2005)) and cultured under conditions described previously (Palmer, T. D., Takahashi, J. & Gage, F. H. The adult rat hippocampus contains primordial neural stem cells. Mol Cell Neurosci 8, 389-404 (1997)). Primary neural progenitors were isolated from E14 mouse embryos and cultured as described previously (Sanada, K. & Tsai, L. H. G protein betagamma subunits and AGS3 control spindle orientation and asymmetric cell fate of cerebral cortical progenitors. Cell 122, 119-31 (2005)). N2a and 293T cells were cultured in DMEM medium containing 10% FBS, L-glutamine, and penicillin/streptomycin. Wnt3a expressing L cells and untransfected L cells were obtained from ATCC (Manassas, Va.). Wnt3a conditional medium was produced according to the ATCC protocol. To induce AHP differentiation, FGF2 was removed from the culture medium and 1 μM retinoic acid/1% FBS was added to the medium for 4 days. • Reagents. Recombinant Wnt3a protein was obtained from Chemicon (Rosemont, Ill.). FGF2 was obtained from PeproTech (Rocky Hill, N.J.). Recombinant GST-GSK3β was obtained from Active Motif (Carlsbad, Calif.). Recombinant GST-β-catenin and GST-axin were obtained from Millipore (Billerica, Mass.). The GSK313 inhibitor, SB-216763, AR-A104418 and His-GSK3β, were obtained from Sigma-Aldrich (Sigma-Aldrich, St. Louis, Mo.). L803-MTS was obtained from Calbiochem (San Diego, Calif.). GST-AKT1 was obtained from Cell Signaling (Beverly, Mass.). GST-CASK-1 (CASK fragment from 316-415aa), GST-CASK-2 (CASK fragment from 777-974aa), and GST-p25 proteins were kindly provided by Dr. B. A. Samuels. Mouse DISC1 peptidel (40-78aa: GYMRSTAGSG IGFLSPAVGMPHPSSAG LTGQQSQHSQS; SEQ ID NO: 1) and Mouse DISC1 peptide 2 (195-238aa, […] GERGEAEGCLPSREAE; SEQ ID NO: 2) were synthesized by Chi Scientific (Maynard, Mass.). • Antibodies. […]
Compound,cell proliferation by BrdU incorporation in DISC1 knockdown cells [1],reduction of Cyclin D1 levels [2] [%],β-catenin levels [2]
Cn1cc(C2=C(c3ccc(Cl)cc3Cl)C(=O)NC2=O)c2ccccc21 [SB-216763],restored the cell proliferation impaired by DISC1 knockdown; also recorded: can rescue DISC-1 knockdown-induced proliferation defects,–,–
"DISC1 shRNA-1: shRNA targeting rat and mouse DISC1, SEQ ID NO:4, in pLentiLox 3.7 vector (GGCAAACACTGTGAAGTGC)",–,50,35 % to control
